Measurements taken from patent publication US20230295131A1, “INHIBITORS OF RHO-ASSOCIATED COILED-COIL KINASE” (Angion Biomedica Corp., priority 2020, published 2023).
Counter-ions that a name gives are not always drawn.

Experiments:
ROCK1 = biological target: T1, ROCK1 (Homo sapiens, UniProt Q13464); assay: ROCK1 kinase binding affinity, DiscoverX KINOMEscan KdELECT; settings: 11-point 3-fold dilution
T1 construct: T7 phage fusion (kinase-tagged phage) or DNA tag for qPCR detection
Description: (§1) 1. ROCK1 and ROCK2 kinase assays: The ROCK1 and ROCK2 kinase binding affinities of compounds in this disclosure were determined by DiscoverX's KINOMEscan™ KdELECT technology (https://www.discoverx.com/kinomescan-elect-kinase-screening-and-profiling-services): Kinase-tagged T7 phage strains were prepared in an E. coli host derived from the BL21 strain. E. coli were grown to log-phase and infected with T7 phage and incubated with shaking at 32° C. until lysis. The lysates were centrifuged and filtered to remove cell debris. The remaining kinases were produced in HEK-293 cells and subsequently tagged with DNA for qPCR detection. […] The liganded beads were blocked with excess biotin and washed with blocking buffer (SeaBlock (Pierce), 1% BSA, 0.05% Tween 20, 1 mM DTT) to remove unbound ligand and to reduce nonspecific binding. […] Kds were determined using an 11-point 3-fold compound dilution series with three DMSO control points. […] The compounds were then diluted directly into the assays such that the final concentration of DMSO was 0.9%. All reactions performed in polypropylene 384-well plate. Each was a final volume of 0.02 ml. […] The kinase concentration in the eluates was measured by qPCR.

ROCK2 = biological target: T2, ROCK2 (Homo sapiens, UniProt O75116); assay: ROCK2 kinase binding affinity, DiscoverX KINOMEscan KdELECT; settings: for Kd: KINOMEscan KdELECT, 11-point 3-fold dilution, read-out: Kd (μM) ROCK2; for ROCK2 Selectivity: selectivity for ROCK2 over ROCK1 from Kd
T2 construct: T7 phage fusion (kinase-tagged phage) or DNA tag for qPCR detection
Description: as §1

T1 sequence (Q13464 whole entry, the tested form may be a part): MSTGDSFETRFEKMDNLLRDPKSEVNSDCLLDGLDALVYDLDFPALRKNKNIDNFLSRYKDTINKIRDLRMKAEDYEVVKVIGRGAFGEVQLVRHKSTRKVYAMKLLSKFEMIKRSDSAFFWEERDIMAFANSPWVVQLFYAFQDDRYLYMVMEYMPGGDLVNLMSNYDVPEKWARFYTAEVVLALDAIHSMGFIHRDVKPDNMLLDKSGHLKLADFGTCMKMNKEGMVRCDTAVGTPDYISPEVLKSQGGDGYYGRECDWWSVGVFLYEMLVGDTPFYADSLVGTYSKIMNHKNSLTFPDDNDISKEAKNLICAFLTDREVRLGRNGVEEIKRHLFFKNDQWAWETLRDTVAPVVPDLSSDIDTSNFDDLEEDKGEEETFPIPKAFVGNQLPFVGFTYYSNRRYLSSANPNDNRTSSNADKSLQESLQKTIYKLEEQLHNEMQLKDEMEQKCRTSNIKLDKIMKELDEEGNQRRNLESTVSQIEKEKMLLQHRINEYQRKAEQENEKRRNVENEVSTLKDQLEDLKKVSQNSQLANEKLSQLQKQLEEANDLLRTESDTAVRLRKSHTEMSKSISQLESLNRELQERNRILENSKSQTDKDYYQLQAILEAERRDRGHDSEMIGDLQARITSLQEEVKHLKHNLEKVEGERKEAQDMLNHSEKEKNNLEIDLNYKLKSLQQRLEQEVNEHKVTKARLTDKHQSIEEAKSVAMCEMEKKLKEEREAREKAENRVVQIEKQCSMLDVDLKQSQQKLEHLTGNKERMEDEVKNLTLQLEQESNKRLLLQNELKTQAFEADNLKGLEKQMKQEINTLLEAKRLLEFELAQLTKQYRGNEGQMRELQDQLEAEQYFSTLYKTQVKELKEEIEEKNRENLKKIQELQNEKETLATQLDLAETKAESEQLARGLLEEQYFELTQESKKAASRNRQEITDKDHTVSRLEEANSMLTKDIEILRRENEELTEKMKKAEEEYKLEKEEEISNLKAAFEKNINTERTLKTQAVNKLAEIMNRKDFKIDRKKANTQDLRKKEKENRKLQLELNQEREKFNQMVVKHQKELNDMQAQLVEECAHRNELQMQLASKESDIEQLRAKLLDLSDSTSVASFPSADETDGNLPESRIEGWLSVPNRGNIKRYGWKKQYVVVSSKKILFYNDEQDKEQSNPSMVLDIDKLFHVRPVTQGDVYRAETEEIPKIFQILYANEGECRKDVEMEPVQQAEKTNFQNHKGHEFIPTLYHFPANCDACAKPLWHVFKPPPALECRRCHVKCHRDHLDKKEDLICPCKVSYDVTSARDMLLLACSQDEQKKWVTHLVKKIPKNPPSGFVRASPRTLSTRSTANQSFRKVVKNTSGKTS
T2 sequence (O75116 whole entry, the tested form may be a part): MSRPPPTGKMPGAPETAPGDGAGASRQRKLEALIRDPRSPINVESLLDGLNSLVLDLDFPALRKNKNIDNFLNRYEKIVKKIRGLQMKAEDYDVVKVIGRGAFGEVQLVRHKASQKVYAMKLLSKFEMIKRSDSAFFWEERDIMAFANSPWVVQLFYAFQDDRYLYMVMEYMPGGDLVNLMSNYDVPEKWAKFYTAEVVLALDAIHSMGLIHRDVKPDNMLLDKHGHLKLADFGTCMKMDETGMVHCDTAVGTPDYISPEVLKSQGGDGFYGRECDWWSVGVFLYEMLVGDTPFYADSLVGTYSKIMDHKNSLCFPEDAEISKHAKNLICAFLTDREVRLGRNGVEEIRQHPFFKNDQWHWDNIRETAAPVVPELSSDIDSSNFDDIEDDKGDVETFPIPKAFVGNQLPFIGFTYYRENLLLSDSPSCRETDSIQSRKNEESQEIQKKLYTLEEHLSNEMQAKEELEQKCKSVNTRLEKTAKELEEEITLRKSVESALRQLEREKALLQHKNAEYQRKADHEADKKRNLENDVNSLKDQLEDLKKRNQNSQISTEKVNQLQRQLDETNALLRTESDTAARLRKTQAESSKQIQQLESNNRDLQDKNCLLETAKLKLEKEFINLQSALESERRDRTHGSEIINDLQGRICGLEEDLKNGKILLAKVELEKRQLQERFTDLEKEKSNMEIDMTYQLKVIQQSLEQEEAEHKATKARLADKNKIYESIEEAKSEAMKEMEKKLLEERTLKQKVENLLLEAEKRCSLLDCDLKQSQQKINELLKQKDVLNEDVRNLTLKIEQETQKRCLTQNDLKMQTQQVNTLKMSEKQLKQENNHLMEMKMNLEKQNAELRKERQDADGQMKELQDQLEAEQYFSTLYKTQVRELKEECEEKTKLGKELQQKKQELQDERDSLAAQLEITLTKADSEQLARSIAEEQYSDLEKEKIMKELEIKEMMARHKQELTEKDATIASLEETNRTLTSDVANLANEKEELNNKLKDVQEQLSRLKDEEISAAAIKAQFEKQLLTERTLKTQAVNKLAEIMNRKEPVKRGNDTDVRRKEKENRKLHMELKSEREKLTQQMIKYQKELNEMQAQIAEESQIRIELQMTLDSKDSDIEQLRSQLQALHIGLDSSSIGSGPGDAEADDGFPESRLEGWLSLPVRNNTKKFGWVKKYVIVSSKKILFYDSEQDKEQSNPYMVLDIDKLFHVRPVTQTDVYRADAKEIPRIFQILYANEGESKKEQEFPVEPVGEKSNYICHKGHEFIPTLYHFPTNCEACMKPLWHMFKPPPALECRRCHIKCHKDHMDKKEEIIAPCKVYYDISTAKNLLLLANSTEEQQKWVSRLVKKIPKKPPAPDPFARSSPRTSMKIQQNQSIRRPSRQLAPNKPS

Kd (ROCK1) | Kd (ROCK2) | Structure (SMILES) | ROCK2 Selectivity (ROCK2)
1 to 9.9 µM | < 0.01 µM | Fc1n[nH]c2ccc(C#Cc3ccnc(-c4ccnc(NCC5CCCO5)n4)n3)cc12 (stereo not drawn) [Ex. 50, 4-((3-Fluoro-1H-indazol-5-yl)ethynyl)-N-((tetrahydrofuran-2-yl)methyl)-[2,4′-bipyrimidin]-2′-amine] | *** (151 to 500-fold selectivity for ROCK2)
1 to 9.9 µM | 0.1 to 0.99 µM | CN(C)CCNc1nccc(-c2nccc(C#Cc3ccc4[nH]ncc4c3)n2)n1 [Ex. 54, N1-(4-((1H-Indazol-5-yl)ethynyl)-[2,4′-bipyrimidin]-2′-yl)-N2,N2-dimethylethane-1,2-diamine] | * (<50-fold selectivity for ROCK2)
0.1 to 0.99 µM | < 0.01 µM | CC1(C)CCC(CNc2nccc(-c3nccc(C#Cc4ccc5[nH]ncc5c4)n3)n2)O1 (stereo not drawn) [Ex. 68, 4-((1H-Indazol-5-yl)ethynyl)-N-((5,5-dimethyltetrahydrofuran-2-yl)methyl)-[2,4′-bipyrimidin]-2′-amine] | *** (151 to 500-fold selectivity for ROCK2)
0.1 to 0.99 µM | 0.01 to 0.099 µM | C(#Cc1ccnc(-c2ccnc(NCc3ccco3)n2)n1)c1ccc2[nH]ncc2c1 [Ex. 40, 4-((1H-Indazol-5-yl)ethynyl)-N-(furan-2-ylmethyl)-[2,4′-bipyrimidin]-2′-amine] | * (<50-fold selectivity for ROCK2)
1 to 9.9 µM | < 0.01 µM | O=S1(=O)CCC(CNc2nccc(-c3nccc(C#Cc4ccc5[nH]ncc5c4)n3)n2)CC1 [Ex. 85, 4-(((4-((1H-Indazol-5-yl)ethynyl)-[2,4′-bipyrimidin]-2′-yl)amino)methyl)tetrahydro-2H-thiopyran 1,1-dioxide] | *** (151 to 500-fold selectivity for ROCK2)
0.1 to 0.99 µM | 0.01 to 0.099 µM | CN(C)C(=O)CNc1nccc(-c2nccc(C#Cc3ccc4[nH]ncc4c3)n2)n1 [Ex. 19, 2-((4-((1H-Indazol-5-yl)ethynyl)-[2,4′-bipyrimidin]-2′-yl)amino)-N,N-dimethylacetamide] | ** (50 to 150-fold selectivity for ROCK2)
1 to 9.9 µM | < 0.01 µM | CS(=O)(=O)CCNc1nccc(-c2nccc(C#Cc3ccc4[nH]ncc4c3)n2)n1 [Ex. 56, 4-((1H-Indazol-5-yl)ethynyl)-N-(2-(methylsulfonyl)ethyl)-[2,4′-bipyrimidin]-2′-amine] | **** (>500-fold selectivity for ROCK2)
1 to 9.9 µM | 0.01 to 0.099 µM | CC(Nc1nccc(-c2nccc(C#Cc3ccc4[nH]ncc4c3)n2)n1)C1CCCO1 (stereo not drawn) [Ex. 67, 4-((1H-Indazol-5-yl)ethynyl)-N-(1-(tetrahydrofuran-2-yl)ethyl)-[2,4′-bipyrimidin]-2′-amine] | * (<50-fold selectivity for ROCK2)
0.1 to 0.99 µM | < 0.01 µM | C(#Cc1ccnc(-c2ccnc(NC[C@@H]3CCCO3)n2)n1)c1ccc2[nH]ncc2c1 [Ex. 35, (S)-4-((1H-Indazol-5-yl)ethynyl)-N-((tetrahydrofuran-2-yl)methyl)-[2,4′-bipyrimidin]-2′-amine] | *** (151 to 500-fold selectivity for ROCK2)
0.1 to 0.99 µM | 0.01 to 0.099 µM | C(#Cc1ccnc(-c2ccnc(NCC3CCCN3)n2)n1)c1ccc2[nH]ncc2c1 (stereo not drawn) [Ex. 5, 4-((1H-Indazol-5-yl)ethynyl)-N-(pyrrolidin-2-ylmethyl)-[2,4′-bipyrimidin]-2′-amine] | * (<50-fold selectivity for ROCK2)

Second part, the molecule before the results:

Structure (SMILES) | Kd (ROCK1) | Kd (ROCK2) | ROCK2 Selectivity (ROCK2)
FC1(F)Oc2ccc(CNc3nccc(-c4nccc(C#Cc5ccc6[nH]ncc6c5)n4)n3)cc2O1 [Ex. 13, 4-((1H-Indazol-5-yl)ethynyl)-N-((2,2-difluorobenzo[d][1,3]dioxol-5-yl)methyl)-[2,4′-bipyrimidin]-2′-amine] | 10 to 100 µM | 0.1 to 0.99 µM | ** (50 to 150-fold selectivity for ROCK2)
Fc1cccc(CNc2nccc(-c3nccc(C#Cc4ccc5[nH]ncc5c4)n3)n2)c1F [Ex. 26, 4-((1H-Indazol-5-yl)ethynyl)-N-(2,3-difluorobenzyl)-[2,4′-bipyrimidin]-2′-amine] | 1 to 9.9 µM | 0.01 to 0.099 µM | ** (50 to 150-fold selectivity for ROCK2)
Fc1ccccc1CNc1nccc(-c2nccc(C#Cc3ccc4[nH]ncc4c3)n2)n1 [Ex. 15, 4-((1H-Indazol-5-yl)ethynyl)-N-(2-fluorobenzyl)-[2,4′-bipyrimidin]-2′-amine] | 10 to 100 µM | 0.01 to 0.099 µM | *** (151 to 500-fold selectivity for ROCK2)
Clc1ccc(CNc2nccc(-c3nccc(C#Cc4ccc5[nH]ncc5c4)n3)n2)nc1 [Ex. 16, 4-((1H-Indazol-5-yl)ethynyl)-N-((5-chloropyridin-2-yl)methyl)-[2,4′-bipyrimidin]-2′-amine] | 0.1 to 0.99 µM | < 0.01 µM | * (<50-fold selectivity for ROCK2)
CC(Nc1nccc(-c2nccc(C#Cc3ccc4[nH]ncc4c3)n2)n1)c1ccc(F)cn1 (stereo not drawn) [Ex. 28, 4-((1H-Indazol-5-yl)ethynyl)-N-(1-(5-fluoropyridin-2-yl)ethyl)-[2,4′-bipyrimidin]-2′-amine] | 1 to 9.9 µM | 0.01 to 0.099 µM | * (<50-fold selectivity for ROCK2)
Cc1cnc(F)c(CNc2nccc(-c3nccc(C#Cc4ccc5[nH]ncc5c4)n3)n2)c1 [Ex. 72, 4-((1H-Indazol-5-yl)ethynyl)-N-((2-fluoro-5-methylpyridin-3-yl)methyl)-[2,4′-bipyrimidin]-2′-amine] | 10 to 100 µM | 10 to 100 µM | * (<50-fold selectivity for ROCK2)
Cc1ccnc(F)c1CNc1nccc(-c2nccc(C#Cc3ccc4[nH]ncc4c3)n2)n1 [Ex. 70, 4-((1H-Indazol-5-yl)ethynyl)-N-((2-fluoro-4-methylpyridin-3-yl)methyl)-[2,4′-bipyrimidin]-2′-amine] | 10 to 100 µM | 0.01 to 0.099 µM | **** (>500-fold selectivity for ROCK2)
Fc1cc(CNc2nccc(-c3nccc(C#Cc4ccc5[nH]nc(F)c5c4)n3)n2)ccn1 [Ex. 61, 4-((3-Fluoro-1H-indazol-5-yl)ethynyl)-N-((2-fluoropyridin-4-yl)methyl)-[2,4′-bipyrimidin]-2′-amine] | 10 to 100 µM | 0.01 to 0.099 µM | *** (151 to 500-fold selectivity for ROCK2)
COC(=O)[C@H]1CC[C@@H](Nc2nccc(-c3nccc(C#Cc4ccc5[nH]ncc5c4)n3)n2)CC1 [Ex. 91, (1s,4s)-Methyl 4-((4-((1H-indazol-5-yl)ethynyl)-[2,4′-bipyrimidin]-2′-yl)amino)cyclohexanecarboxylate] | 0.1 to 0.99 µM | < 0.01 µM | ** (50 to 150-fold selectivity for ROCK2)
O[C@H]1CC[C@@H](Nc2nccc(-c3nccc(C#Cc4ccn5cnnc5c4)n3)n2)CC1 [Ex. 97, (1s,4s)-4-((4-([1,2,4]Triazolo[4,3-a]pyridin-7-ylethynyl)-[2,4′-bipyrimidin]-2′-yl)amino)cyclohexanol] | 10 to 100 µM | 10 to 100 µM | * (<50-fold selectivity for ROCK2)
CN(C)C(=O)CNc1nccc(-c2nccc(C#Cc3ccc4[nH]nc(F)c4c3)n2)n1 [Ex. 46, 2-((4-((3-Fluoro-1H-indazol-5-yl)ethynyl)-[2,4′-bipyrimidin]-2′-yl)amino)-N,N-dimethylacetamide] | 1 to 9.9 µM | 0.01 to 0.099 µM | ** (50 to 150-fold selectivity for ROCK2)
COc1ccnc(CNc2nccc(-c3nccc(C#Cc4ccc5[nH]ncc5c4)n3)n2)c1 [Ex. 11, 4-((1H-Indazol-5-yl)ethynyl)-N-((4-methoxypyridin-2-yl)methyl)-[2,4′-bipyrimidin]-2′-amine] | 0.1 to 0.99 µM | 0.01 to 0.099 µM | ** (50 to 150-fold selectivity for ROCK2)
Fc1ccc(CNc2nccc(-c3nccc(C#Cc4ccc5[nH]nc(F)c5c4)n3)n2)nc1 [Ex. 45, 4-((3-Fluoro-1H-indazol-5-yl)ethynyl)-N-((5-fluoropyridin-2-yl)methyl)-[2,4′-bipyrimidin]-2′-amine] | 10 to 100 µM | 0.01 to 0.099 µM | **** (>500-fold selectivity for ROCK2)
Fc1ccc(CNc2nccc(-c3nccc(C#Cc4ccc5[nH]ncc5c4)n3)n2)nc1 [Ex. 3, 4-((1H-Indazol-5-yl)ethynyl)-N-((5-fluoropyridin-2-yl)methyl)-[2,4′-bipyrimidin]-2′-amine] | 1 to 9.9 µM | < 0.01 µM | *** (151 to 500-fold selectivity for ROCK2)
O[C@H]1CC[C@@H](Nc2nccc(-c3nccc(C#Cc4ccc5[nH]nc(F)c5c4)n3)n2)C1 [Ex. 94, (1S,3R)-3-((4-((3-Fluoro-1H-Indazol-5-yl)ethynyl)-[2,4′-bipyrimidin]-2′-yl)amino)cyclopentanol] | 1 to 9.9 µM | < 0.01 µM | **** (>500-fold selectivity for ROCK2)
C(#Cc1ccnc(-c2ccnc(NCc3ccc4c(c3)CNC4)n2)n1)c1ccc2[nH]ncc2c1 [Ex. 20, 4-((1H-Indazol-5-yl)ethynyl)-N-(isoindolin-5-ylmethyl)-[2,4′-bipyrimidin]-2′-amine trifluoroacetate salt] | 0.1 to 0.99 µM | 0.01 to 0.099 µM | * (<50-fold selectivity for ROCK2)
